Laboratory results published in PMC10547238, “Discovery of Potent Tetrazole Free Fatty Acid Receptor 2 Antagonists” (Journal of Medicinal Chemistry, 2023).

Assays:
human FFA2-eYFP = biological target: T1, human FFA2-eYFP (Homo sapiens, UniProt O15552); assay: [35S]GTPγS incorporation assay, membranes of Flp-In T-Rex 293 cells; format: biochemical; settings: for GTPγS pIC50: hFFA2, propionate at EC80, mean ± SEM, three or more experiments; for LLEGTPγS: pIC50, GTPγS – ClogP
T1 construct: expressed in transfected cells; host or cells: membranes of Flp-In T-Rex 293 cells induced to express the construct
T1 sequence (O15552 1-330): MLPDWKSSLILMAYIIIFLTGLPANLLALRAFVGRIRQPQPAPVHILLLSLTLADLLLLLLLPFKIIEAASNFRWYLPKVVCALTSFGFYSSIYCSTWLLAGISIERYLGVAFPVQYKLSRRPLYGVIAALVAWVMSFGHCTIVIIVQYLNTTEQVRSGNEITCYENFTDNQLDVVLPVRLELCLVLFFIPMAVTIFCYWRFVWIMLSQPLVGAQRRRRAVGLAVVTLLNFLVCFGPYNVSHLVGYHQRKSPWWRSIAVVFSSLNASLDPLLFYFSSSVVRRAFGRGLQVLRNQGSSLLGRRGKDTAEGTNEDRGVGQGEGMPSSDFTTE
Protocol: (§1) The activity of the compounds on FFA2 was evaluated in two different functional antagonist assays, both using propionate at EC80 as the agonist. The GTPγS assay reflects receptor activation by directly assessing G protein recruitment, whereas the cAMP assay, performed in whole cells, reflects a physiologically relevant downstream second messenger.
Functional activity of the compounds were tested in a [^35S]GTPγS incorporation assay using membranes of Flp-In T-Rex 293 cells induced to express human FFA2-eYFP. […] The reaction was initiated by addition of [^35S]GTPγS (100 nCi per reaction) containing 1 μM GDP and incubated at 30 °C for 60 min. The reaction was terminated by rapid vacuum filtration through GF/C glass fiber filter-bottom 96-well microplates (PerkinElmer Life Sciences, Beaconsfield, UK) using a UniFilter FilterMate Harvester (PerkinElmer). Unbound radioligands were removed from filters by three washes with ice-cold PBS. MicroScint-20 (PerkinElmer) was added to dried filters, and [^35S]GTPγS binding was quantified by liquid scintillation spectroscopy.

hFFA2 = biological target: T2, hFFA2 (Homo sapiens, UniProt O15552); assay: cAMP assay, antagonist mode, Flp-In T-Rex 293 cells expressing hFFA2-eYFP; format: cell-based; settings: for cAMP pIC50: hFFA2, antagonist mode, propionate at EC80, mean ± SEM, three or more experiments; for LLEcAMP: pIC50, cAMP – ClogP; for IC50 / hFFA2 cAMP (pIC50): supplementary CSV; for IC50: read-out: hFFA2 cAMP (pIC50) (converted)
T2 construct: expressed in transfected cells; host or cells: Flp-In T-Rex 293 cells, doxycycline-induced
T2 sequence (O15552 1-330): T1 sequence (O15552 1-330)
Protocol: as §1
The hFFA2-eYFP and hFFA3-eYFP Flp-In T-Rex 293 cell lines were maintained in Dulbecco’s modified Eagle mMedium (DMEM, ThermoFisher #11965092) supplemented with 10% (v/v) fetal bovine serum, 100 U/mL penicillin, 100 μg/mL streptomycin, 5 μg/mL blasticidin S, and 200 μg/mL hygromycin B and incubated at 37 °C and 5% CO2 in a humidified incubator. Cells were passaged at 70–80% confluency.
To determine the compound’s ability to activate or inhibit the Gi-coupled FFA2 or FFA3, intracellular cAMP concentrations were determined using Flp-In T-Rex293 cells induced to express hFFA2-eYFP or hFFA3-eYFP. Experiments were carried out using a homogeneous time-resolved FRET-based detection kit (CisBio, PerkinElmer #62AM9PEC) according to the manufacturer’s protocol. The day before the assay, 10,000 cells/well were plated in DMEM supplemented with penicillin/streptomycin (100 units/mL and […], respectively), 5 μg/mL blasticidin S, and 200 μg/mL hygromycin B in 96-well cell culture microplates (Greiner Bio-One) and induced to express hFFA2-eYFP or hFFA3-YFP with 100 ng/mL doxycycline.
In antagonist mode, the cells were pre-incubated for 20 min with antagonist test compounds in HBSS together with 50 μM IBMX at rt. Then, the cells were further incubated for 25 min at rt in HBSS with the agonist compound, sodium propionate at EC80 (51.4 μM for FFA2, 13.2 μM for FFA3), and 3 μM forskolin. Reactions were stopped, and the output was measured with an Envision plate reader using a time-resolved fluorescence protocol, measuring the light emission at 620 and 665 nm. All analyses were performed in triplicate and analyzed using GraphPad Prism (version 9).

| GTPγS pIC50 (human FFA2-eYFP) | LLEGTPγS (human FFA2-eYFP) | cAMP pIC50 (hFFA2) | LLEcAMP (hFFA2) | IC50 (hFFA2) [nM] | hFFA2 cAMP (pIC50) (hFFA2) | decrease in potency compared to 16a (human FFA2-eYFP; GTPγS assay) [fold] | decrease in potency compared to 16a (hFFA2; cAMP assay) [fold] | potency decrease on elongated tetrazole linker (human FFA2-eYFP; vs 16e, GTPγS assay) | potency decrease on elongated tetrazole linker (hFFA2; vs 16e, cAMP assay) | Structure (SMILES) |
| --- | --- | --- | --- | --- | --- | --- | --- | --- | --- | --- |
| 8.36 ± 0.09 | 5.80 | 7.89 ± 0.20 | 5.33 | 11.7 | – | – | – | – | – | O=C(Cc1ccccc1)N[C@@H](Cc1ccc(C(F)(F)F)cc1)Cc1nnn[nH]1 [Compound 16a, (S)-N-(1-(1H-Tetrazol-5-yl)-3-(4-(trifluoromethyl)phenyl)propan-2-yl)-2-phenylacetamide] |
| 8.06 ± 0.06 | 5.49 | 7.96 ± 0.03 | 5.39 | – | 7.95 ± 0.12 | – | – | – | – | O=C(N[C@@H](Cc1ccc(C(F)(F)F)cc1)Cc1nnn[nH]1)C1Cc2ccccc21 (stereo partly drawn) [Compound 16b, N-((S)-1-(1H-Tetrazol-5-yl)-3-(4-(trifluoromethyl)phenyl)propan-2-yl)bicyclo[4.2.0]octa-1(6),2,4-triene-7-carboxamide] |
| 8.13 ± 0.04 | 5.42 | 8.26 ± 0.16 | 5.55 | – | – | – | – | – | – | O=C(Cc1cccc(F)c1)N[C@@H](Cc1ccc(C(F)(F)F)cc1)Cc1nnn[nH]1 [Compound 16c, (S)-N-(1-(1H-Tetrazol-5-yl)-3-(4-(trifluoromethyl)phenyl)propan-2-yl)-2-(3-fluorophenyl)acetamide] |
| 7.47 ± 0.04 | 5.65 | 6.91 ± 0.07 | 5.09 | 102 | – | – | – | – | – | O=C(Cc1cccc(F)c1)N[C@@H](Cc1ccccc1)Cc1nnn[nH]1 [Compound 16d, (S)-2-(3-Fluorophenyl)-N-(1-phenyl-3-(1H-tetrazol-5-yl)propan-2-yl)acetamide] |
| 8.07 ± 0.04 | 4.79 | 8.08 ± 0.11 | 4.80 | 9.33 | – | – | – | – | – | O=C(Cc1ccc(Cl)cc1)N[C@@H](Cc1ccc(C(F)(F)F)cc1)Cc1nnn[nH]1 [Compound 16f, (S)-N-(1-(1H-Tetrazol-5-yl)-3-(4-(trifluoromethyl)phenyl)propan-2-yl)-2-(4-chlorophenyl)acetamide] |
| 8.05 ± 0.21 | 4.60 | 7.68 ± 0.11 | 4.23 | 15.8 | – | – | – | – | – | O=C(Cc1cccc(C(F)(F)F)c1)N[C@@H](Cc1ccc(C(F)(F)F)cc1)Cc1nnn[nH]1 [Compound 16i, (S)-N-(1-(1H-Tetrazol-5-yl)-3-(4-(trifluoromethyl)phenyl)propan-2-yl)-2-(3-(trifluoromethyl)phenyl)acetamide] |
| 8.05 ± 0.19 | 5.04 | 7.77 ± 0.12 | 4.76 | 15.8 | – | – | – | – | – | CCOc1cccc(CC(=O)N[C@@H](Cc2ccc(C(F)(F)F)cc2)Cc2nnn[nH]2)c1 [Compound 16m, (S)-N-(1-(1H-Tetrazol-5-yl)-3-(4-(trifluoromethyl)phenyl)propan-2-yl)-2-(3-ethoxyphenyl)acetamide] |
| 7.50 ± 0.23 | 3.91 | 7.44 ± 0.18 | 3.85 | 46.8 | – | – | – | – | – | O=C(Cc1cccc(OC(F)(F)F)c1)N[C@@H](Cc1ccc(C(F)(F)F)cc1)Cc1nnn[nH]1 [Compound 16n, (S)-N-(1-(1H-Tetrazol-5-yl)-3-(4-(trifluoromethyl)phenyl)propan-2-yl)-2-(3-(trifluoromethoxy)phenyl)acetamide] |
| 5.78 ± 0.14 | 2.89 | 5.24 ± 0.17 | 2.35 | – | 5.22 ± 0.18 | – | – | – | – | O=C(CC1CCCC1)N[C@@H](Cc1ccc(C(F)(F)F)cc1)Cc1nnn[nH]1 [Compound 16o, (S)-N-(1-(1H-Tetrazol-5-yl)-3-(4-(trifluoromethyl)phenyl)propan-2-yl)-2-cyclopentylacetamide] |
| 6.37 ± 0.44 | 3.46 | 6.36 ± 0.12 | 3.45 | 355 | – | – | – | – | – | CCCCCC(=O)N[C@@H](Cc1ccc(C(F)(F)F)cc1)Cc1nnn[nH]1 [Compound 16p, (S)-N-(1-(1H-Tetrazol-5-yl)-3-(4-(trifluoromethyl)phenyl)propan-2-yl)hexanamide] |
| 7.19 ± 0.04 | 4.30 | 6.78 ± 0.14 | 3.89 | 186 | – | – | – | – | – | O=C(CCc1ccccc1)N[C@@H](Cc1ccc(C(F)(F)F)cc1)Cc1nnn[nH]1 [Compound 16q, (S)-N-(1-(1H-Tetrazol-5-yl)-3-(4-(trifluoromethyl)phenyl)propan-2-yl)-3-phenylpropanamide] |
| 6.71 ± 0.17 | 5.64 | 5.93 ± 0.15 | 4.86 | 1450 | – | – | – | – | – | O=C(Cc1ccccn1)N[C@@H](Cc1ccc(C(F)(F)F)cc1)Cc1nnn[nH]1 [Compound 16r, (S)-2-(2-((1-(1H-Tetrazol-5-yl)-3-(4-(trifluoromethyl)phenyl)propan-2-yl)amino)-2-oxoethyl)pyridin-1-ium 2,2,2-trifluoroacetate] |
| 7.29 ± 0.07 | 6.22 | 6.89 ± 0.10 | 5.82 | 91.2 | – | 7 | 7 | – | – | O=C(Cc1cccnc1)N[C@@H](Cc1ccc(C(F)(F)F)cc1)Cc1nnn[nH]1 [Compound 16s, (S)-3-(2-((1-(1H-Tetrazol-5-yl)-3-(4-(trifluoromethyl)phenyl)propan-2-yl)amino)-2-oxoethyl)pyridin-1-ium 2,2,2-trifluoroacetate] |
| 6.47 ± 0.15 | 5.40 | 5.74 ± 0.13 | 4.67 | 2950 | – | – | – | – | – | O=C(Cc1ccncc1)N[C@@H](Cc1ccc(C(F)(F)F)cc1)Cc1nnn[nH]1 [Compound 16t, (S)-N-(1-(1H-Tetrazol-5-yl)-3-(4-(trifluoromethyl)phenyl)propan-2-yl)-2-(pyridin-4-yl)acetamide] |
| 7.20 ± 0.14 | 5.42 | 6.98 ± 0.13 | 5.20 | 95.5 | – | – | – | – | – | O=C(Cc1ccc(Cl)nc1)N[C@@H](Cc1ccc(C(F)(F)F)cc1)Cc1nnn[nH]1 [Compound 16v, (S)-5-(2-((1-(1H-Tetrazol-5-yl)-3-(4-(trifluoromethyl)phenyl)propan-2-yl)amino)-2-oxoethyl)-2-chloropyridin-1-ium 2,2,2-trifluoroacetate] |
| 7.72 ± 0.12 | 3.92 | 7.55 ± 0.14 | 3.75 | 30.9 | – | – | – | 5–6 fold | 5–6 fold | O=C(Cc1cccc(Cl)c1)N[C@H](CCc1nnn[nH]1)Cc1ccc(C(F)(F)F)cc1 [Compound 21, (R)-N-(4-(1H-Tetrazol-5-yl)-1-(4-(trifluoromethyl)phenyl)butan-2-yl)-2-(3-chlorophenyl)-acetamide] |
